pIC50: −log10 of the molar value.
Molecular target: Ribose-phosphate pyrophosphokinase (Escherichia coli) (UniProt P0A717)
Experiment: Inhibitory concentration against Escherichia coli Pyrophosphate Synthetase (PRPP)

Ribose-phosphate pyrophosphokinase (Escherichia coli), sequence (P0A717 whole entry, looked up): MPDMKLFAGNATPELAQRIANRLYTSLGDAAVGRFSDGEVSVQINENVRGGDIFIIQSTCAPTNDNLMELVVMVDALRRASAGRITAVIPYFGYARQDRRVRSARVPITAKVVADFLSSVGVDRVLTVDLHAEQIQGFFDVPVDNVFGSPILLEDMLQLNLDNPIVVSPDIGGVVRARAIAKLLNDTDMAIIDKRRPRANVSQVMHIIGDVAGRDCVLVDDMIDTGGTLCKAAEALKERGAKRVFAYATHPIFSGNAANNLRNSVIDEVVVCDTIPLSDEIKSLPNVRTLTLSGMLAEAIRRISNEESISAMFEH

| SMILES | pIC50 |
| --- | --- |
| Nc1ncnc2c1ncn2CCOCP(=O)(O)O [9-[2-phosphonomethoxyethyl]adenine] | 2.49 |
| Nc1ncnc2c1ncn2[C@@H]1O[C@H](COP(=O)(O)O)[C@H](O)[C@@H]1O [Phosphoric acid mono-[(2R,3R,4S,5R)-5-(6-amino-purin-9-yl)-3,4-dihydroxy-tetrahydro-furan-2-ylmethyl] ester] | 2.29 |
| Nc1ncnc2c1ncn2[C@H]1CC[C@@H](CCOP(=O)(O)O)C1 [Phosphoric acid mono-{2-[(1R,3S)-3-(6-amino-purin-9-yl)-cyclopentyl]-ethyl} ester] | 3.22 |
| Nc1ncnc2c1ncn2[C@H]1CC[C@@H](CC(F)(F)P(=O)(O)O)C1 [{2-[(1R,3S)-3-(6-Amino-purin-9-yl)-cyclopentyl]-1,1-difluoro-ethyl}-phosphonic acid] | 3.00 |

From BindingDB's records for doi:10.1016/S0960-894X(00)80413-8 (1992)
